Assay results taken from patent US20260101897A1, “PLANT ENVIRONMENTAL STRESS TOLERANCE IMPROVEMENT AGENT AND ENVIRONMENTAL STRESS TOLERANCE IMPROVEMENT METHOD” (priority 2022, published 2026).

Experiments:
Type in all cases: in vivo
cotton = test: Evaluation Example 3: tolerance to drying stress, leaf necrotizing; settings: for Leaf necrotizing rate: test compound 0.1 mM (50 mL), 4 days after stoppage of water; for Leaf necrotizing rate / Environmental stress suppressing rate: drying stress Yes; for Environmental stress suppressing rate: test compound 0.1 mM
Experimental: (§1) EGT and GB were commercially available products, and pure water was used as a solvent.
In a plastic pot having a diameter of 60 mm and a height of 55 mm, 90 mL of granular soil (Kumiai horticultural soil) was placed, and one individual cotton (manufactured by TOHOKU SEED CO., LTD.) was seeded per pot.
They were managed in a greenhouse set at room temperature of 25° C. EGT in an amount of 50 mL or GB in an amount of 50 mL was added on the 23rd day after seeding, and drying stress was applied by stopping water supply for 4 days after 4 days from the addition of EGT or GB.
The leaves were collected 4 days after the stoppage of water and photographed with a digital camera. The photographed pictures of the leaves were analyzed with image analysis software WinROOF (manufactured by MITANI Corporation) to quantify the total leaf area and the green leaf area.
Using the above-described total leaf area and green leaf area, the leaf necrotizing rate after 4 days from the stoppage of water was evaluated. The leaf necrotizing rate and the environmental stress suppressing rate were calculated according to the following formulas.

[1] = system: Arabidopsis thaliana (Col-0); test: Evaluation Example 12: tolerance to intense light stress, leaf whitening; settings: for Leaf whitening rate: test compound 0.1 mM (12.5 mL), intense light stress Yes (LED light, 24 hours); for Environmental stress suppressing rate: test compound 0.1 mM, intense light stress Yes
Experimental: EGT and GB were commercially available products, and pure water was used as a solvent. In a plastic pot having a diameter of 60 mm and a height of 55 mm, 90 mL of culture soil (manufactured by Hanagokoro Co., Ltd.) was placed, and 4 individual Arabidopsis thaliana (Col-0) were seeded per pot. They were located in a growth chamber set at room temperature of 22° C., and the light period was 16 hours and the dark period was 8 hours. The light conditions were set such that the light intensity was 5000 lx in the central part under irradiation with the fluorescent lamp. 12.5 mL of EGT or 12.5 mL of GB was added on the 43rd day after seeding, and one day after that, intense light stress was applied by exposure for 24 hours under irradiation of LED light (manufactured by Esbaybulbs Co., Ltd.) with a light intensity set to 2000 μmol/m 2/sec. Whitened leaves of Arabidopsis thaliana subjected to intense light stress were counted, and the leaf whitening rate was evaluated as an index of physiological disorder. The leaf whitening rate and the environmental stress suppressing rate were calculated according to the following formulas. [formula] [formula]

[2] = system: Arabidopsis thaliana (Col-0); test: Evaluation Example 5: tolerance to excessive nutrient stress, leaf wilting; settings: for leaf wilting due to excessive nutrient stress, result in words: 0.5 mM; for Leaf wilting rate: test compound 0.5 mM (50 mL), excessive nutrient stress Yes (liquid fertilizer at 5-fold dilution), one day after stress; for Environmental stress suppressing rate: test compound 0.5 mM, excessive nutrient stress Yes
Experimental: as §1
(§2) One individual Arabidopsis thaliana (Col-0) was seeded in a plastic pot having a diameter of 60 mm and a height of 55 mm. Plastic deep dishes each having a diameter of 160 mm and a height of 28 mm were prepared, and four pots were respectively placed therein. As soil, 45 mL of vermiculite, 22.5 mL of granular soil (Kumiai horticultural soil), and 22.5 mL of vermiculite were placed in the pot in this order.
They were located in a growth chamber set at room temperature of 22° C., and the light period was 16 hours and the dark period was 8 hours. The light conditions were set such that the light intensity was 5000 lx in the central part under irradiation with the fluorescent lamp. Water supply was conducted from the bottom, and the water level was set at about 5 mm. On the 61st day after seeding, 50 mL of EGT or 50 mL of GB was added, and one day after that, a liquid fertilizer (HYPONeX, manufactured by Hyponex Japan Corp., Ltd.) was applied at a 5-fold dilution to give excessive nutrient stress.
The number of wilted leaves was evaluated one day after the excessive nutrient stress was applied. The leaf wilting rate and the environmental stress suppressing rate were calculated according to the following formulas.

[3] = system: Arabidopsis thaliana (Col-0); test: Evaluation Example 2: tolerance to drying stress, plant mortality
Experimental: A commercially available EGT was used, and pure water was used as a solvent.
as §2, with “six” for “four”
They were located in a growth chamber set at room temperature of 22° C., and the light period was 16 hours and the dark period was 8 hours. The light conditions were set such that the light intensity was 5000 lx in the central part under irradiation with the fluorescent lamp. Water supply was conducted from the bottom, and the water level was set at about 5 mm. EGT in an amount of 50 mL was added on the 22nd day after seeding, and drying stress was applied by stopping water supply for 18 days from 2 days after the addition of EGT.
The number of surviving plants was counted 18 days after the stoppage of water, and the plant mortality rate was evaluated as an index of physiological disorder. The mortality rate and the environmental stress suppressing rate were calculated according to the following formulas.

Row | SMILES | necrotizing due to drying stress, result in words (cotton; 0.1 mM, drying stress) | Leaf necrotizing rate (cotton) [%] | Environmental stress suppressing rate (cotton) [%] | leaf whitening due to intense light stress, result in words ([1]; 0.1 mM, intense light stress) | Leaf whitening rate [1] [%] | Environmental stress suppressing rate [1] [%] | leaf wilting due to excessive nutrient stress, result in words [2] | Leaf wilting rate [2] [%] | Environmental stress suppressing rate [2] [%] | survival under drying stress, result in words ([3]; EGT 1 mM, drying stress) | Mortality rate ([3]; test compound 1 mM (50 mL), drying stress Yes, water supply stopped 18 days) [%] | Environmental stress suppressing rate ([3]; test compound 1 mM, drying stress Yes) [%]
1 | C[N+](C)(C)CC(=O)[O-] [GB, glycine betaine, reference compound] | not suppressed | 68 | 0 | not suppressed | 40 | 0 | hardly suppressed | 89 | 11 | – | – | –
2 | C[N+](C)(C)[C@@H](Cc1c[nH]c(=S)[nH]1)C(=O)[O-] [EGT, L-(+)-ergothioneine] | – | 26 | 50 | – | 8 | 78 | suppressed | 24 | 76 | all Arabidopsis thaliana plants survived | 0 | 100
